Results published in patent US20250275976A1, “Methods of Treating Neuroinflammatory Conditions” (Athira Pharma, Inc., priority 2022, published 2025).
Entries after “also recorded” stand apart in the source; their conditions may differ. Read-outs that look alike come from different tables or passages of the source.

Columns and labels:
[1] = tested on: Rat primary cortical neuron cultures; test: Neuroprotection of rat primary cortical neurons against neurotoxic insults (Cell Titer-Glo viability); format: cell-based
Description: HGF/MET signaling activation is expected to protect cells, including neurons, from cell death. […] Hydrogen peroxide (H2O2) treatment produces toxic oxidative stress. Bacteria-derived lipopolysaccharide (LPS) treatment induces inflammatory cell death. Treatment with excess glutamate (Glut) produces excitotoxicity in neuron cultures. Treatment with 1-methyl-4-phenylpyridinium (MPP^+) causes cell death by inhibition of mitochondrial function.
Cells were then subjected to individual conditional insults for 24 hours at the following concentrations: H2O2 at 1 uM, LPS at 1 uM, glutamate at 25 uM, or MPP+ at 500 uM. All treatments contained recombinant human HGF (R&D Systems) at a concentration of 5 ng/ml. MK-801 (Dizocilpine) is a pore blocker of the N-Methyl-D-aspartate (NMDA) receptor, a glutamate receptor, and was used as a positive control.
Data was normalized to DMSO+HGF control set at 100% cell viability.
Data are reported as statistical significance vs. insult control, with NS=not significant, +=p<0.05, ++=p<0.01, and +++=p<0.001.

[2] = tested on: Rat primary cortical neuron cultures; settings: LPS 24 h
[3] = tested on: male CD-1 mice; test: T-maze spontaneous alternation, LPS-induced cognitive deficit; format: in vivo, mouse; settings: for Spontaneous alternation (%) Mean: LPS 250 μg/kg i.p.; for Recovery (%): saline/vehicle = 100%, LPS/vehicle = 0%
Description: Encephalitis refers to inflammation of the brain that may result in brain swelling fever, headache, confusion, and seizures. The source of neuroinflammation can vary widely, including due to viral, bacterial, parasitic, or fungal infection or due to autoimmune diseases. Lipopolysaccharide (LPS) is a bacterial endotoxin that induces an intense neuroinflammatory reaction and has been associated with cognitive decline. The ability of Compound A19 to reverse cognitive decline induced by LPS in a mouse model of encephalitis was studied using a T-maze assay. In a separate substantially similar assay, Compounds 1a and 5a were also assessed.
Spontaneous and continuous alternation is the innate tendency of rodents to alternate free choices in a T-maze (T-CAT) over a series of successive runs. This sequential procedure relies on working memory and is sensitive to various pharmacological manipulations affecting memory processes. The present studies were conducted to evaluate the abilities of Compound A19, Compound 1a and Compound 5a to reverse LPS-induced cognitive deficit in the T-maze assay.
Compound A19 was dissolved in 0.9% NaCl (saline) and vortexed periodically until complete dissolution and with the pH adjusted between 7.4 and 7.8. Compound A19 was used in concentrations of 0.125, 0.1, 0.05, 0.025 and 0.0125 mg/ml which when given in a volume of 10 ml/kg result in doses of 1.25, 1, 0.5, 0.25 and 0.125 mg/kg, respectively. Compound 1a was dissolved at 160 mg/ml in 100% DMSO and vortexed until complete dissolution. Then the above stock solution was diluted in 20% PEG-400 and 78% 0.9% NaCl, whereby the stock solution comprised 2% of the final solution. Compound 1a was used in concentrations of 0.05, 0.2, 0.8, 1.6 and 3.2 mg/ml which when given in a volume of 10 ml/kg result in doses of 0.5, 2, 8, 16 and 32 mg/kg, respectively. Compound 5a was dissolved at 100 mg/ml in 100% DMSO and vortexed until complete dissolution. Then the above stock solution was diluted in 20% PEG-400 and 78% 0.9% NaCl, whereby the stock solution comprised 2% of the final solution. Compound 5a was used in concentrations of 0.125, 0.25, 0.5, 1 and 2 mg/ml which when given in a volume of 10 ml/kg result in doses of 1.25, 2.5, 5, 10 and 20 mg/kg, respectively.
Memantine was dissolved in saline. Memantine was used in concentration of 0.1 and 0.01 mg/ml, which when given in a volume of 10 ml/kg result in a dose of 1 and 0.1 mg/kg, respectively. Memantine is approved for symptomatic treatment of Alzheimer's disease was used as a reference compound.
LPS was dissolved in saline and prepared at a concentration of 0.0125 mg/ml and given intraperitoneally (i.p.) at a dosage volume of 20 ml/kg to yield a dose of 0.25 mg/kg ([…]).
Four to five weeks old male CD-1 mice (Janvier; Le Genest St Isle - France) were used for the study.
LPS was injected i.p. 2 weeks prior the T-maze trial. Compound 1a was tested at doses of 0.5, 2, 8, 16, and 32 mg/kg administered orally (p.o.) for 14 days with last treatment given 60 min before the T-maze trial. Compound 5a was tested at the doses of 1.25, 2.5, 5, 10, and 20 mg/kg administered orally (p.o.) for 14 days with last treatment given 60 min before the T-maze trial. LPS was injected i.p. 2 weeks prior the T-maze trial.
The T-maze apparatus was made of gray Plexiglas with a main stem (55 cm long×10 cm wide×20 cm high) and two arms (30 cm long×10 cm wide×20 cm high) positioned at a 90-degree angle relative to the main stem. A start box (15 cm long×10 cm wide) was separated from the main stem by a guillotine door. Horizontal doors were also provided to close specific arms during the force choice alternation task.
The experimental protocol consisted of a single session, which started with one “forced-choice” trial, followed by 14 “free-choice” trials. In the “forced-choice” trial, the animal was confined 5 seconds in the start arm and was then released while either the left or right goal arm was blocked by a horizontal door. […]

In the case of `CCC(C)CN1CC2N(C(=O)c3ccc(C(F)(F)F)cc3)CCC(=O)N2[C@@H](C)C1=O` (some centres unmarked) [Compound 1a], the “Statistical significance vs. insult control (cell viability)” value ([1]; Glutamate (25 uM) insult, [Compound 1a] 0.1 nM + HGF (5 ng/ml)) is reported as “+++ (+++=p<0.001)”, the “Statistical significance vs. insult control (cell viability)” value ([1]; Glutamate (25 uM) insult, [Compound 1a] 1 nM + HGF (5 ng/ml)) is reported as “+++ (+++=p<0.001)” and the “Statistical significance vs. insult control (cell viability)” value ([1]; Glutamate (25 uM) insult, [Compound 1a] 100 nM (second column headed 100 nM) + HGF (5 ng/ml)) is reported as “+++ (+++=p<0.001)”. The “Statistical significance vs. insult control (cell viability)” value ([1]; Glutamate (25 uM) insult, [Compound 1a] 100 nM + HGF (5 ng/ml)) was “+++ (+++=p<0.001)”, the “Statistical significance vs. insult control (cell viability)” value ([1]; Glutamate (25 uM) insult, [Compound 1a] 1 uM + HGF (5 ng/ml)) was “+++ (+++=p<0.001)” and the “Statistical significance vs. insult control (cell viability)” value ([1]; H2O2 (1 uM) insult, [Compound 1a] 0.1 nM + HGF (5 ng/ml)) was “+++ (+++=p<0.001)”. The “Statistical significance vs. insult control (cell viability)” value ([1]; H2O2 (1 uM) insult, [Compound 1a] 1 nM + HGF (5 ng/ml)) was “+++ (+++=p<0.001)”, the “Statistical significance vs. insult control (cell viability)” value ([1]; H2O2 (1 uM) insult, [Compound 1a] 100 nM (second column headed 100 nM) + HGF (5 ng/ml)) was “+++ (+++=p<0.001)” and the “Statistical significance vs. insult control (cell viability)” value ([1]; H2O2 (1 uM) insult, [Compound 1a] 100 nM + HGF (5 ng/ml)) was “+++ (+++=p<0.001)”. For the same molecule, the “Statistical significance vs. insult control (cell viability)” value ([1]; H2O2 (1 uM) insult, [Compound 1a] 1 uM + HGF (5 ng/ml)) was “+++ (+++=p<0.001)”, the “Neuroprotection against the cohort of insults (result in words)” value ([1]; H2O2, glutamate, LPS, MPP+, broad range of concentrations) was “effective neuroprotective treatment at a broad range of concentrations against the entire cohort of insults tested” and the “Statistical significance vs. insult control (cell viability)” value ([1]; LPS (1 uM) insult, [Compound 1a] 0.1 nM + HGF (5 ng/ml)) was “+++ (+++=p<0.001)”. For the same molecule, the “Statistical significance vs. insult control (cell viability)” value ([1]; LPS (1 uM) insult, [Compound 1a] 100 nM (second column headed 100 nM) + HGF (5 ng/ml)) was “+++ (+++=p<0.001)”, the “Statistical significance vs. insult control (cell viability)” value ([1]; LPS (1 uM) insult, [Compound 1a] 100 nM + HGF (5 ng/ml)) was “+++ (+++=p<0.001)” and the “Statistical significance vs. insult control (cell viability)” value ([1]; LPS (1 uM) insult, [Compound 1a] 1 uM + HGF (5 ng/ml)) was “+++ (+++=p<0.001)”. The “Statistical significance vs. insult control (cell viability)” value ([1]; MPP+ (500 uM) insult, [Compound 1a] 0.1 nM + HGF (5 ng/ml)) was “+++ (+++=p<0.001)”, the “Statistical significance vs. insult control (cell viability)” value ([1]; MPP+ (500 uM) insult, [Compound 1a] 1 nM + HGF (5 ng/ml)) was “+++ (+++=p<0.001)” and the “Statistical significance vs. insult control (cell viability)” value ([1]; MPP+ (500 uM) insult, [Compound 1a] 100 nM (second column headed 100 nM) + HGF (5 ng/ml)) was “+++ (+++=p<0.001)”. The “Statistical significance vs. insult control (cell viability)” value ([1]; MPP+ (500 uM) insult, [Compound 1a] 100 nM + HGF (5 ng/ml)) was “+++ (+++=p<0.001)”, the “Statistical significance vs. insult control (cell viability)” value ([1]; MPP+ (500 uM) insult, [Compound 1a] 1 uM + HGF (5 ng/ml)) was “+++ (+++=p<0.001)” and the “Significance of neuroprotection vs 1 uM LPS” value (from here on “Significance … vs 1 uM LPS”) ([2]; dose 0.1 nM) was “+++ (+++ indicates p<0.001)”. For the same molecule, the “Significance … vs 1 uM LPS” value ([2]; dose 1 nM) was “+++ (+++ indicates p<0.001)”, the “Significance … vs 1 uM LPS” value ([2]; dose 10 nM) was “+++ (+++ indicates p<0.001)” and the “Significance … vs 1 uM LPS” value ([2]; dose 100 nM) was “+++ (+++ indicates p<0.001)”. The “Significance … vs 1 uM LPS” value ([2]; dose 1 μM) was “+++ (+++ indicates p<0.001)”, the “Reversal of LPS-induced cognitive deficit in T-maze (result in words)” value ([3]; ANOVA, Fisher's PLSD, p<0.05, doses as in the value) was “significant reversal of LPS-induced cognitive deficits at 2 mg/kg; also recorded: trending at 8 and 32 mg/kg; also recorded: reversed the LPS-induced cognitive disruption” and the “Spontaneous alternation (%) Mean” value ([3]; Compound 1a 0.5 mg/kg p.o. daily 14 days) was 49%. The “Spontaneous alternation (%) Mean” value ([3]; Compound 1a 0.5 mg/kg p.o. daily 14 days, listed as Cmpd 1a) was 48.6%, the “Recovery (%)” value ([3]; Compound 1a 0.5 mg/kg p.o.) was 17% and the “Spontaneous alternation (%) Mean” value ([3]; Compound 1a 2 mg/kg p.o. daily 14 days) was 59%. The “Spontaneous alternation (%) Mean” value ([3]; Compound 1a 2 mg/kg p.o. daily 14 days, listed as Cmpd 1a) was 58.6%, the “Recovery (%)” value ([3]; Compound 1a 2 mg/kg p.o.) was 56% and the “Spontaneous alternation (%) Mean” value ([3]; Compound 1a 8 mg/kg p.o. daily 14 days) was 56%. The “Spontaneous alternation (%) Mean” value ([3]; Compound 1a 8 mg/kg p.o. daily 14 days, listed as Cmpd 1a) was 56.4%, the “Recovery (%)” value ([3]; Compound 1a 8 mg/kg p.o.) was 47% and the “Spontaneous alternation (%) Mean” value ([3]; Compound 1a 16 mg/kg p.o. daily 14 days) was 51%. For the same molecule, the “Spontaneous alternation (%) Mean” value ([3]; Compound 1a 16 mg/kg p.o. daily 14 days, listed as Cmpd 1a) was 51.4%, the “Recovery (%)” value ([3]; Compound 1a 16 mg/kg p.o.) was 28% and the “Spontaneous alternation (%) Mean” value ([3]; Compound 1a 32 mg/kg p.o. daily 14 days) was 56%. The “Spontaneous alternation (%) Mean” value ([3]; Compound 1a 32 mg/kg p.o. daily 14 days, listed as Cmpd 1a) was 55.7% and the “Recovery (%)” value ([3]; Compound 1a 32 mg/kg p.o.) was 44%.
